# Measurements published in patent publication US20110015080A1, “Solution-based methods for RNA expression profiling” (MASSACHUSETTS INSTITUTE OF TECHNOLOGY, priority 2005, published 2011).
# Values joined by “and” are separate entries in the source; they are usually repeats but may differ in a detail not shown here. Equal values may be shown once.
# Tested on: HL60 (human promyelocytic leukemia) cells
# Assay: LMA-FlexMAP bead-based gene expression signature analysis of total RNA from HL60 cells treated with tretinoin or DMSO (ninety transcripts); for FlexMap GAPDH M LUA#94: test concentration or dose not given here; for FlexMap NM 000147 LUA#29: test concentration or dose not given here; for FlexMap NM 001948 LUA#84: test concentration or dose not given here
# [1] = Experiment 2, Tretinoin, replicate columns
smiles,measurement,setting,value
"CC1=C(/C=C/C(C)=C/C=C/C(C)=C/C(=O)O)C(C)(C)CCC1 [tretinoin, all-trans-retinoic acid]",NM_005952 LUA#66 FlexMAP signal,"Experiment 1, tretinoin-treated HL60, transcript NM_005952, replicate columns",172 and 212 and 149 and 198.5 and 72.5 and 189 and 203 and 95.5 and 188.5 and 182
same,NM_005980 LUA#73 FlexMAP signal,"Experiment 1, tretinoin-treated HL60, transcript NM_005980, replicate columns",145 and 173 and 163 (2×) and 57 and 142 and 74 and 149.5 and 151
same,NM_006019 LUA#35 FlexMAP signal,"Experiment 1, tretinoin-treated HL60, transcript NM_006019, replicate columns",746 and 867 and 569 and 818 and 186 and 828 and 762 and 287 and 767 and 734.5
same,NM_006138 LUA#56 FlexMAP signal,"Experiment 1, tretinoin-treated HL60, transcript NM_006138, replicate columns",114 and 130 and 93 and 124 and 51.5 and 113.5 and 115.5 and 66 and 122 and 114.5
same,NM_006432 LUA#27 FlexMAP signal,"Experiment 1, tretinoin-treated HL60, transcript NM_006432, replicate columns",1294.5 and 1495 and 1081.5 and 1409.5 and 397 and 1446 and 1405 and 625 and 1345 and 1203
same,NM_006452 LUA#71 FlexMAP signal,"Experiment 1, tretinoin-treated HL60, transcript NM_006452, replicate columns",78.5 and 76 and 67.5 and 79.5 and 41 and 75 and 68 and 53.5 and 82 and 74
same,NM_006985 LUA#58 FlexMAP signal,"Experiment 1, tretinoin-treated HL60, transcript NM_006985, replicate columns",52 and 54 and 47 and 59 and 37 and 55 and 56 and 40 and 57 and 51
same,NM_007282 LUA#16 FlexMAP signal,"Experiment 1, tretinoin-treated HL60, transcript NM_007282, replicate columns",60.5 and 60 and 39 and 64.5 (2×) and 42.5 and 64 and 62 and 56 and 61
same,NM_014333 LUA#26 FlexMAP signal,"Experiment 1, tretinoin-treated HL60, transcript NM_014333, replicate columns",472 and 584 and 366.5 and 531 and 134 and 492 and 530 and 197.5 and 497 and 459.5
same,NM_014366 LUA#61 FlexMAP signal,"Experiment 1, tretinoin-treated HL60, transcript NM_014366, replicate columns",213 and 263 and 163 and 235 (2×) and 66 and 231 (2×) and 97 and 209.5
same,NM_014573 LUA#70 FlexMAP signal,"Experiment 1, tretinoin-treated HL60, transcript NM_014573, replicate columns",135 and 155 (2×) and 99 and 153.5 and 61 and 138 and 79 and 138.5 and 144.5
same,NM_015201 LUA#57 FlexMAP signal,"Experiment 1, tretinoin-treated HL60, transcript NM_015201, replicate columns",181 and 226.5 and 139 and 222 and 64 and 208 and 203 and 87 and 194.5 and 183
same,NM_018115 LUA#63 FlexMAP signal,"Experiment 1, tretinoin-treated HL60, transcript NM_018115, replicate columns",506.5 and 644 and 552.5 and 735.5 and 143 and 690 and 601 and 227.5 and 582 and 418
same,NM_018164 LUA#69 FlexMAP signal,"Experiment 1, tretinoin-treated HL60, transcript NM_018164, replicate columns",140.5 and 177 and 131 and 165 and 57 and 152.5 and 155 and 75 and 143 and 142
same,NM_018256 LUA#83 FlexMAP signal,"Experiment 1, tretinoin-treated HL60, transcript NM_018256, replicate columns",1557 and 747 and 897 and 726 and 388 and 903 and 998 and 589 and 1256.5 and 1208
same,NM_018890 LUA#33 FlexMAP signal,"Experiment 1, tretinoin-treated HL60, transcript NM_018890, replicate columns",705 and 824 and 537.5 and 758 and 187.5 and 788 and 743.5 and 293.5 and 719 and 712
same,NM_019058 LUA#75 FlexMAP signal,"Experiment 1, tretinoin-treated HL60, transcript NM_019058, replicate columns",143.5 and 158 (2×) and 143 and 164 and 59 and 152 and 79.5 and 148.5 and 129
same,NM_020117 LUA#78 FlexMAP signal,"Experiment 1, tretinoin-treated HL60, transcript NM_020117, replicate columns",527 and 607 and 408 and 584.5 and 145 and 554 and 564 and 230 and 529.5 and 519
same,NM_021103 LUA#41 FlexMAP signal,"Experiment 1, tretinoin-treated HL60, transcript NM_021103, replicate columns",2412 and 2719 and 2257.5 and 2689 and 925 and 2668.5 and 2611 and 1370 and 2590 and 2454
same,NM_021203 LUA#80 FlexMAP signal,"Experiment 1, tretinoin-treated HL60, transcript NM_021203, replicate columns",547 and 654 and 442.5 and 642.5 and 151 and 578.5 and 611 and 228.5 and 563 and 546
same,NM_021974 LUA#64 FlexMAP signal,"Experiment 1, tretinoin-treated HL60, transcript NM_021974, replicate columns",1003 and 1158 and 872 and 1105 and 293.5 and 1102.5 and 1052.5 and 477.5 and 1068 and 955
same,NM_024045 LUA#65 FlexMAP signal,"Experiment 1, tretinoin-treated HL60, transcript NM_024045, replicate columns",124 and 146 and 100 and 145 and 52 and 141 and 142 and 69 and 133 and 119
same,TFRC LUA#92 FlexMAP signal,"Experiment 1, tretinoin-treated HL60, transcript TFRC, replicate columns",250 and 305 and 191.5 and 285 and 81.5 and 280.5 and 289 and 109 and 272 and 251.5
same,FlexMap ACTB LUA#91,[1],2807 and 2986 and 107 and 2939 and 1020 and 2820 and 2870 and 2791 and 2727 and 2873.5
same,FlexMap GAPDH_3 LUA#95,[1],3075 and 2896 and 139.5 and 2850 and 1137 and 3025 and 3066 and 2936 and 2973 and 3162.5
same,FlexMap GAPDH_5 LUA#93,[1],1888 and 1977.5 and 72 and 1965.5 and 509 and 1847 and 2001 and 1834.5 and 1691 and 1994
same,FlexMap GAPDH_M LUA#94,[1],1814 and 1595.5 and 73 and 1871 and 514 and 1911 and 2010.5 and 1693.5 and 1762.5 and 1932.5
same,FlexMap NM_000147 LUA#29,[1],1102 and 1135 and 36 and 1106 and 236 and 1132 and 1122.5 and 1051 and 1086 and 1171
same,FlexMap NM_000211 LUA#39,[1],1639.5 and 1219 and 89 and 1828 and 470 and 1717 and 1734.5 and 1593.5 and 1570 and 1763
same,FlexMap NM_000250 LUA#87,[1],236 and 228 and 39 and 249 and 70 and 246 and 243 and 232 and 239.5 and 253
same,FlexMap NM_000414 LUA#22,[1],564.5 and 544 and 34 and 547 and 115.5 and 596 and 561.5 and 550.5 and 543 and 598.5
same,FlexMap NM_000433 LUA#28,[1],786.5 and 574 and 34 and 810 and 158 and 860 and 842 and 753 and 724 and 823
same,FlexMap NM_000584 LUA#30,[1],2339.5 and 2517.5 and 72 and 2315 and 665 and 2389 and 2341.5 and 2247 and 2269 and 2450
same,FlexMap NM_000884 LUA#81,[1],963.5 and 841 and 61 and 951 and 259.5 and 1004 and 988 and 925 and 916 and 1010
same,FlexMap NM_001034 LUA#67,[1],260 and 246 and 32.5 and 280 and 65 and 281 and 253 and 271 and 252 and 276
same,FlexMap NM_001101 LUA#34,[1],3017 and 2733 and 211 and 3046 and 1578 and 3029 and 3195 and 2934 and 2997 and 3139.5
same,FlexMap NM_001469 LUA#79,[1],1315 and 1107 and 73 and 1230 and 333.5 and 1437 and 1331.5 and 1308 and 1281.5 and 1360
same,FlexMap NM_001498 LUA#18,[1],494.5 and 511 and 32 and 521 and 110.5 and 507.5 and 513 and 441.5 and 467 and 531.5
same,FlexMap NM_001684 LUA#23,[1],71 and 75 and 30 and 98 and 38.5 and 66 and 79 and 68 and 77.5 and 83
same,FlexMap NM_001948 LUA#84,[1],72 and 70 and 33 and 79.5 and 40 and 68 (2×) and 70.5 and 62 and 81
same,FlexMap NM_002166 LUA#25,[1],227 and 254.5 and 30 and 237 and 60 and 230 and 240 and 221 and 242
same,FlexMap NM_002467 LUA#90,[1],741 and 823 (2×) and 762.5 and 205 and 792 and 798 and 776 and 759
same,FlexMap NM_002468 LUA#40,[1],531.5 and 584 and 35 and 511 and 135 and 556.5 and 549 and 498 and 494 and 589.5
same,FlexMap NM_002539 LUA#74,[1],416 and 397 and 33 and 437 and 89 and 423 and 409 and 392 and 368 and 441
same,FlexMap NM_002624 LUA#36,[1],1647.5 and 1643 and 71 and 1714 and 670 and 1664 and 1757 and 1580.5 and 1616 and 1772.5
same,FlexMap NM_002664 LUA#38,[1],2701.5 and 2723 and 91 and 2815 and 1002 and 2840.5 and 2805 and 2642 and 2652 and 2875
same,FlexMap NM_002970 LUA#42,[1],1716.5 and 1563 and 42 and 1624 and 435.5 and 1759.5 and 1743 and 1655.5 and 1575 and 1823
same,FlexMap NM_002982 LUA#45,[1],3697 and 3859 and 294 and 3328 and 2094 and 3522 and 3632 and 3562 and 3485 and 3768
